Tests used:
[1] = biological target: T1, cholesterol ester transfer protein (CETP) (Homo sapiens, UniProt P11597); experiment: CETP inhibition test (3H-cholesterol ester transfer from HDL to biotinylated LDL, SPA); format: biochemical; conditions: CETP partially purified from human plasma; 37° C., 18 h; concentration at which transfer is reduced by half
T1 construct: CETP is obtained in partially purified form from human plasma by differential centrifugation and column chromatography; from tissue; host or cells: human plasma
T1 sequence (P11597 18-493): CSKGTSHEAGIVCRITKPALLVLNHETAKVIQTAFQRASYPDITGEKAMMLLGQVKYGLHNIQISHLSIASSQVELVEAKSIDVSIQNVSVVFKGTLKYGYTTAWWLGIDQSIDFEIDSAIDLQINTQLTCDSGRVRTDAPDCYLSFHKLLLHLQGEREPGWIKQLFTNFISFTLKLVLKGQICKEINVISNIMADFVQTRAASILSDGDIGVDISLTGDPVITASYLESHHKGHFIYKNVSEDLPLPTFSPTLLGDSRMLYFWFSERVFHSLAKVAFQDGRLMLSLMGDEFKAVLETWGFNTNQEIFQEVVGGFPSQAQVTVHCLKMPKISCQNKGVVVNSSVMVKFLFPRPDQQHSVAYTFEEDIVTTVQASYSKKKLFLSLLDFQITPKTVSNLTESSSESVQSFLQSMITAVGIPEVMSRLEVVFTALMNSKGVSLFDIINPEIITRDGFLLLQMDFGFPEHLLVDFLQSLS
Procedure: Preparation of CETP • CETP is obtained in partially purified form from human plasma by differential centrifugation and column chromatography and used for the test. For this purpose, human plasma is adjusted to a density of 1.21 g per ml using NaBr and centrifuged at 50,000 rpm at 4° C. for 18 h. The bottom fraction (d>1.21 g/ml) is applied to a Sephadex®Phenyl-Sepharose 4B (Pharmacia) column, washed with 0.15 m NaCl/0.001 M TrisHCl pH 7.4 and subsequently eluted using dist. water. The CETP-active fractions are pooled, dialysed against 50 mM Na-acetate pH 4.5 and applied to a CM-Sepharose® (Pharmacia) column. Elution is subsequently carried out using a linear gradient (0-1 M NaCl). The pooled CETP fractions are dialysed against 10 mM Tris HCl pH 7.4 and subsequently purified further by chromatography over a Mono Q® column (Pharmacia).
Preparation of Radioactively Labelled HDL • 50 ml of fresh human EDTA plasma are adjusted to a density of 1.12 using NaBr and centrifuged at 4° C. in a Ty 65 rotor at 50,000 rpm for 18 h. […] CETP test • To assess the CETP activity, the transfer of ^3H-cholesterol ester from human HD-lipoproteins to biotinylated LD-lipoproteins is measured. • The reaction is terminated by addition of Streptavidin-SPA® beads (Amersham) and the transferred radioactivity is directly measured in a liquid scintillation counter. • In the assay mixture, […] (˜50,000 cpm) with 10 ml of Biotin-LDL (Amersham) in 50 mM Hepes/0.15 m NaCl/0.1% bovine serum albumin/0.05% NaN3 pH 7.4 are incubated with 10 ml of CETP (1 mg/ml) and 3 ml of a solution of the substance to be tested (dissolved in 10% DMSO/1% BSA) at 37° C. for 18 h. […] of the SPA streptavidin bead solution (TRKQ 7005) are subsequently added, the mixture is incubated with shaking for another 1 h and subsequently measured in a scintillation counter. • The controls used are corresponding incubations with 10 ml of buffer, 10 ml of CETP at 4° C. and 10 ml of CETP at 37° C. • The activity which is transferred in the control experiments with CETP at 37° C. is taken to be 100% transfer. […]

For `CC1(C)Cc2nc(C3CCCC3)c([C@@H](F)c3ccc(C(F)(F)F)cc3)c(-c3ccc(Cl)cc3)c2[C@@H](O)C1` [Example 55], the melting point was 138 to 139 °C.
In the case of `CC1(C)Cc2nc(C3CCCC3)c(C(=O)c3ccc(C(F)(F)F)cc3)c(-c3ccc(F)c(F)c3)c2[C@@H](O)C1` [Example 46], the melting point is reported as 166 to 168 °C.
`CC1(C)Cc2nc(C3CCCC3)c(C(=O)c3ccc(C(F)(F)F)cc3)c(-c3cccc(F)c3)c2[C@@H](O)C1` [Example 49] gave a melting point of 167 to 168 °C.
In the case of `Cc1ccc(-c2c(C(=O)c3ccc(C(F)(F)F)cc3)c(C3CCCC3)nc3c2[C@@H](O)CC(C)(C)C3)cc1` [Example 51], the melting point is reported as 153 to 155 °C.
With `CC1(C)Cc2nc(C3CCCC3)c([C@@H](F)c3ccc(C(F)(F)F)cc3)c(-c3ccc(C(F)(F)F)cc3)c2[C@@H](O)C1` [Example 54] the melting point was 175 to 176 °C.
`CC1(C)Cc2nc(C3CCCC3)c(Cc3ccc(C(F)(F)F)cc3)c(-c3ccc(Cl)cc3)c2[C@@H](O)C1` [Example 56] showed a melting point of 136 to 137 °C.
Work on `CCOc1ccc(-c2c([C@@H](F)c3ccc(C(F)(F)F)cc3)c(C3CCCC3)nc3c2[C@@H](O)CC(C)(C)C3)cc1.Cl` yielded a melting point of 206 to 207 °C.
In the case of `Cc1ccc(-c2c(Cc3ccc(C(F)(F)F)cc3)c(C3CCCC3)nc3c2[C@@H](O)CC(C)(C)C3)cc1` [Example 62], the melting point is reported as 106 to 108 °C.
`CC1(C)Cc2nc(C3CCCC3)c([C@@H](F)c3ccc(C(F)(F)F)cc3)c(-c3cccc(F)c3)c2[C@@H](O)C1` [Example 61] showed an IC50 [1] of 0.023 µM and a melting point of 129 °C.
With `CC1(C)Cc2nc(C3CCCC3)c(C(=O)c3ccc(C(F)(F)F)cc3)c(-c3ccc(C(F)(F)F)cc3)c2[C@@H](O)C1` [Example 48] the melting point was 157 to 162 °C.
For `CC1(C)Cc2nc(C3CCCC3)c(C(F)c3ccc(C(F)(F)F)cc3)c(-c3ccc(F)cc3)c2C(C)(O)C1` (single isomer, unassigned) [Example 1, 2-Cyclopentyl-4-(4-fluorophenyl)-3-[fluoro-(4-trifluoromethyl-phenyl)-methyl]-5-methyl-7,7-dimethyl-5,6,7,8-tetrahydro-quinolin-5-ol], the IC50 [1] was 0.006 µM.
Work on `COc1ccc(-c2c(C(=O)c3ccc(C(F)(F)F)cc3)c(C3CCCC3)nc3c2[C@@H](O)CC(C)(C)C3)cc1` [Example 47] yielded a melting point of 171 to 174 °C.
Compound `Cc1ccc(-c2c([C@@H](F)c3ccc(C(F)(F)F)cc3)c(C3CCCC3)nc3c2[C@@H](O)CC(C)(C)C3)cc1` [Example 53] has an IC50 [1] of 0.01 µM and a melting point of 156 to 158 °C.
`CC1(C)Cc2nc(C3CCCC3)c(C(=O)c3ccc(C(F)(F)F)cc3)c(-c3ccc(Cl)cc3)c2[C@@H](O)C1` [Example 52] showed a melting point of 168 to 169 °C.

— patent US6897317B2, “4-Phenyltetrahydrochinoline utilized as an inhibitor of the cholesterol ester transfer protein” (Bayer Aktiengesellschaft, priority 1997, dated 2005)
